Results on 20 compounds are retold here after ChEMBL document CHEMBL5346891, “Overview of the development of HBV small molecule inhibitors” (Eur J Med Chem, 2023).

Test [1] deals with Hepatitis B virus. The test can be described thus: Antiviral activity against HBV infected in human HepG2.2.15 cells assessed as reduction in HBsAg at 100 ug/ml measured after 7 day by enzyme immunoassay relative to control. The class given is functional. The note with it: HepG2.2.15, 168 h.
Test [2] deals with Hepatitis B virus. The test can be described thus: Antiviral activity against HBV infected in human HepG2.2.15 cells assessed as reduction in HBeAg at 100 ug/ml measured after 7 day by enzyme immunoassay relative to control. The note with it: HepG2.2.15, 168 h. In kind it is functional.
Test [3] has as its system Hepatitis B virus. Kind of test: Antiviral activity against HBV infected in human HepG2.2.15 cells assessed as reduction in HBsAg measured after 7 day by enzyme immunoassay relative to control. The note with it: HepG2.2.15, 168 h. In kind it is functional, organism-based.
For test [4], the system named is Hepatitis B virus. The test can be described thus: Antiviral activity against HBV stably transfected in human HepDES19 cells assessed as reduction in viral DNA measured after 7 days by q-PCR assay. In kind it is functional, organism-based. The note with it: HepDES19, 168 h.
Test [5] relates to Hepatitis B virus. Kind of test: Antiviral activity against HBV infected in human HepG2-NTCP12 cells assessed as reduction in viral DNA measured after 7 days by q-PCR assay. The note with it: HepG2-NTCP12, 168 h. The class given is functional, organism-based.
Test [6] deals with Hepatitis B virus. Kind of test: Antiviral activity against HBV infected in human HepDES19 cells assessed as reduction in cccDNA accumulation by southern blot analysis. In kind it is functional, organism-based.
Test [7] has as its system Hepatitis B virus. Kind of test: Antiviral activity against HBV infected in human HepG2.2.15 cells. In kind it is functional, organism-based.
In test [8] the test system is Hepatitis B virus. The test can be described thus: Antiviral activity against drug-resistant HBV infected in human HepG2.2.15 cells. The class given is functional, organism-based.
The test system of test [9] is Hepatitis B virus. Kind of test: Antiviral activity against HBV infected in human HepDES19 cells assessed as reduction in viral DNA replication measured after 72 hrs by q-PCR assay. In kind it is functional, organism-based. The note with it: HepDES19, 72 h.
In test [10] the test system is Hepatitis B virus. Kind of test: Antiviral activity against HBV infected in human HepG2.2.15 cells assessed as reduction in HBsAg level measured after 144 hrs by ELISA. The class given is functional, organism-based. The note with it: HepG2.2.15, 144 h. Background: ELISA stands for enzyme-linked immunosorbent assay.
Test [11] has as its system Hepatitis B virus. Kind of test: Antiviral activity against HBV infected in human HepG2.2.15 cells assessed as reduction in HBeAg level measured after 144 hrs by ELISA. The note with it: HepG2.2.15, 144 h. In kind it is functional, organism-based.
For test [12], the system named is Hepatitis B virus. Kind of test: Antiviral activity against HBV infected in human HepDES19 cells assessed as reduction in viral rcDNA level measured after 7 days by a branched chain DNA hybridization assay. In kind it is functional, organism-based. The note with it: HepDES19, 168 h.
In test [13] the test system is Hepatitis B virus. The test can be described thus: Antiviral activity against HBV infected in human HePAD38 cells assessed as reduction in cccDNA level. The class given is functional, organism-based.
In test [14] the test system is Hepatitis B virus. The test can be described thus: Antiviral activity against HBV infected in human HepG2 cells assessed as reduction in cccDNA transcription level. In kind it is functional, organism-based.
The nature of test [15]: Modulation of capsid assembly in HBV genotype A assessed as inhibition of viral replication. In kind it is functional, Hepatitis B virus.
Test [16] can be described thus: Modulation of capsid assembly in HBV genotype B assessed as inhibition of viral replication. The class given is functional, Hepatitis B virus.
Test [17] is described as follows: Modulation of capsid assembly in HBV genotype C assessed as inhibition of viral replication. The class given is functional, Hepatitis B virus.
A short description of test [18]: Modulation of capsid assembly in HBV genotype D assessed as inhibition of DNA replication. The class given is functional, Hepatitis B virus.
A short description of test [19]: Modulation of capsid assembly in HBV genotype E assessed as inhibition of viral replication. In kind it is functional, Hepatitis B virus.
The nature of test [20]: Modulation of capsid assembly in HBV genotype F assessed as inhibition of viral replication. In kind it is functional, Hepatitis B virus.
Test [21] is described as follows: Modulation of capsid assembly in HBV genotype G assessed as inhibition of viral replication. In kind it is functional, Hepatitis B virus.
The nature of test [22]: Modulation of capsid assembly in HBV genotype H assessed as inhibition of viral replication. The class given is functional, Hepatitis B virus.
Test [23] relates to Hepatitis B virus. The test can be described thus: Antiviral activity against HBV infected in human HepG2.2.15 cells assessed as reduction in cccDNA transcription. The class given is functional, organism-based.
The test system of test [24] is Hepatitis B virus. The test can be described thus: Antiviral activity against HBV infected in human HePAD38 cells assessed as inhibition of viral replication. In kind it is functional, organism-based.
The test system of test [25] is Hepatitis B virus. The test can be described thus: Antiviral activity against HBV infected in human HepDE19 cells assessed as inhibition of viral replication. In kind it is functional, organism-based.
For test [26], the system named is Hepatitis B virus. The test can be described thus: Antiviral activity against HBV infected in human HepG2.2.15 cells assessed as inhibition of viral replication. In kind it is functional, organism-based.
Test [27] concerns Hepatitis B virus. Kind of test: Antiviral activity against HBV infected in human HepG2.2.15 cells assessed as reduction in viral DNA level. The class given is functional, organism-based.
In test [28] the test system is Hepatitis B virus. Kind of test: Antiviral activity against HBV infected in human Primary hepatocyte cells assessed as reduction in HBeAg level. In kind it is functional, organism-based.
The test system of test [29] is Hepatitis B virus. Kind of test: Antiviral activity against HBV infected in human Primary hepatocyte cells assessed as reduction in HBsAg level. The class given is functional, organism-based.
The subject of test [30] is Hepatitis B virus. The test can be described thus: Antiviral activity against HBV infected in human Primary hepatocyte cells assessed as reduction in pgRNA level. The class given is functional, organism-based.
Test [31] relates to Hepatitis B virus. The test can be described thus: Antiviral activity against HBV infected in human HepG2-hNTCP cells assessed as reduction in HBeAg level. In kind it is functional, organism-based.
In test [32] the test system is Hepatitis B virus. Kind of test: Antiviral activity against HBV infected in human HepG2-hNTCP cells assessed as reduction in HBsAg level. The class given is functional, organism-based.
Test [33] concerns Hepatitis B virus. The test can be described thus: Antiviral activity against HBV infected in human HepG2-hNTCP cells assessed as reduction in pgRNA level. The class given is functional, organism-based.

Broadly, the inhibition is the drop in the measured response relative to a control, in per cent. One may read the EC50 as the concentration giving half of the maximal effect. In the case of `O=C(/C=C/c1ccc(O)c(O)c1)O[C@@H]1C[C@](O)(C(=O)O)C[C@@H](OC(=O)/C=C/c2ccc(O)c(O)c2)[C@H]1O`, the inhibition at 100 µg/mL was determined as 81% in test [1] and 73% in test [2]. Further, the EC50 in [3] came to 90500 nM.
Regarding `O=C(/C=C/c1ccc(O)c(O)c1)O[C@@H]1[C@H](O)C[C@@](O)(C(=O)O)C[C@H]1OC(=O)/C=C/c1ccc(O)c(O)c1`, the inhibition at 100 µg/mL in test [1] turned out to be 90%; in test [2] it was 81%. The EC50 in test [3] was 31900 nM.
For `CC(=O)c1cc(O)c(=O)c(O)cc1C`, the EC50 was 290 nM in test [4] and 57 nM in test [5].
As for `Cc1nc2cc(NC(=O)c3ccc(S(=O)(=O)N(C)Cc4ccccc4)cc3)ccc2s1`, the EC50 in [6] worked out at 3000 nM.
For the compound `O=C(CN(c1cc(C(F)(F)F)ccc1Cl)S(=O)(=O)c1ccccc1)NCc1ccncc1`, the EC50 in test [6] amounted to 10000 nM.
For the compound `CCOC(=O)C1=C(CN2CCOCC2)NC(c2nccs2)=N[C@H]1c1ccc(F)cc1Br`, the EC50 came out at 1 nM in test [7] and 10 nM in [8].
`C/C(=N\OCc1ccccc1)c1c(C)cc(=O)n(O)c1O`: the EC50 in [9] came out at 540 nM.
On to `C=C(C)[C@@H]1CC[C@]2(C(=O)OC)CC[C@]3(COC(=O)c4ccccc4)[C@H](CC[C@@H]4[C@@]5(C)CC[C@H](OC(C)=O)C(C)(C)[C@@H]5CC[C@]43C)[C@H]12`, for which the EC50 in test [10] and in test [11] was 8900 nM each time.
In the case of `COc1ccc(CO/N=C(\C)c2c(C)cc(=O)n(O)c2O)cc1`, the figures for the EC50 in test [9] and in [12] were 260 nM and 400 nM, respectively.
Consider `C/C(=N\OCc1ccc(F)cc1)c1c(C)cc(=O)n(O)c1O`, for which the EC50 in [9] was determined as 110 nM; in test [12], 100 nM.
Turning to `C/C(=N\OCc1ccc(C)cc1)c1c(C)cc(=O)n(O)c1O`, in test [9], the half-maximal effective concentration (EC50) came out at 460 nM.
Take `COc1ccccc1CO/N=C(\C)c1c(C)cc(=O)n(O)c1O`: the EC50 in [9] was found to be 500 nM.
With `C/C(=N\OCc1ccccc1F)c1c(C)cc(=O)n(O)c1O`, the results for the EC50 in test [9] and in [12] were 320 nM and 330 nM, respectively.
Consider `Cc1c(C(=O)C(=O)NCC#N)c(C)n(C)c1C(=O)Nc1ccc(F)c(F)c1`, for which the EC50 in [13] turned out to be 3 nM.
For `Cc1c(O)c2cc(Br)cnc2n(O)c1=O`, the EC50 was 1500 nM in [4] and 78 nM in test [5].
On to `CN[C@@H](C)C(=O)N[C@H]1CN(S(=O)(=O)c2cccc(S(=O)(=O)N3CC[C@H]4CC[C@@H](C(=O)NC(c5ccccc5)c5ccccc5)N4C(=O)[C@@H](NC(=O)[C@H](C)NC)C3)c2)CC[C@H]2CC[C@@H](C(=O)NC(c3ccccc3)c3ccccc3)N2C1=O`, for which the EC50 in test [14] turned out to be 20 nM.
As for `C[C@H](NS(=O)(=O)c1cc(C(=O)Nc2ccc(F)c(C#N)c2)n(C)c1)C(F)(F)F` [BERSACAPAVIR], the 50% effective concentration (EC50) in test [15] came to 10 nM; in [16] it was 10 nM; in test [17] it was 10 nM; in test [18] it was 17 nM; in test [19] it was 10 nM; in test [20], 10 nM. Also, the concentration giving a half-maximal response (EC50) in [21] and in test [22] was 10 nM in each case.
In the case of `O=C1OCc2c1cc1ccc3c(c1c2-c1ccc2c(c1)OCO2)OCO3` [HELIOXANTHIN], in test [23], the EC50 amounted to 160 nM.
Turning to `CCOC(=O)C1=C(CN2CCN3C(=O)N(CC(C)(C)C(=O)O)C[C@@H]3C2)N=C(c2nccs2)N[C@H]1c1cccc(F)c1C` [LINVENCORVIR], the half-maximal effective concentration (EC50) in test [24] worked out at 18 nM; in test [25] it was 27 nM; in test [26], 17 nM.
Consider `O=C(NCc1cnc(C(F)(F)F)s1)c1ccc2c(c1)NC(=O)c1ccccc1S2(=O)=O` [VEBICORVIR], for which the EC50 in test [27] was determined as 173 nM; in test [28], 1840 nM; in [29] it was 1840 nM; in test [30], 1840 nM; in test [31], 1840 nM; in [32] it was 1840 nM. Besides, the half-maximal effective concentration (EC50) in [33] came to 1840 nM.
